Molecules are shown by their SMILES. pIC50: −log10 of the molar value.

For orientation: pIC50 means −log10 of the IC50, conventionally taken in molar units. High values mean a small IC50, low ones a large IC50.

For assay [1], the system named is human lung cancer Calu-3 xenografts. Description: Effect on xenografts in nude mice with lung cancer Calu-3. Type of assay: in vivo, BALB/cA-nude mice. The following applies: for Initial Tumor Volume (mm^3) D0: D0 = time of first administration (baseline); for Initial Tumor Volume (mm^3) D0 / Final Tumor Inhibition Rate (%) D16 / % T/C D16 / Relative Tumor Volume D16 / Final Tumor Volume (mm^3) D16 / The Recession/Group / inhibition of growth of human lung cancer Calu-3 (in words): PO QD × 17; for Initial Tumor Volume (mm^3) D0 / Final Tumor Inhibition Rate (%) D16 / % T/C D16 / Relative Tumor Volume D16 / Final Tumor Volume (mm^3) D16 / The Recession/Group: 146.5-146.7 mg/kg; for Initial Tumor Volume (mm^3) D0 / Relative Tumor Volume D16 / Final Tumor Volume (mm^3) D16: mean; for % T/C D16: C = mean tumor volume of drug, control group; for Final Tumor Volume (mm^3) D16: D16 = 17th day after administration; for The Recession/Group: number of mice per group of 6. The protocol: Effect of compound 97(±), compound 97, compound 110 and Lapatinib (positive control) on xenografts in nude mice with lung cancer Calu-3 Remark: “±” means the compound is racemic.
The purpose of the experiment is to evaluate and compare the effect of compound 97(±), compound 97, compound 110, Lapatinib on xenografts in nude mice with lung cancer Calu-3.
BALB/cA-nude mice, 6-7 weeks, ♀, purchased from ShangHai Slac laboratory animal Co., Ltd.
Calu-3 cells were injected subcutaneously into nude mice. Animals were divided into groups (d0) randomly after tumors have grown to 150-300 mm^3. Dosage and dosage regimen design can be seen in table 1. Tumors volume was measured 2-3 times per week. Mice were weighed and data were recorded. Calculation formula for tumor volume (V) is as below:
V=½×a×b^2, wherein, a and b represent length and width respectively.
In general terms: Xenograft models place foreign cells or tissue in a host animal.

A further assay deals with A431. Nature of the assay: Antitumor activity in vitro, SRB cell proliferation inhibition. Type of assay: cell-based. The following applies: 72 h incubation, Logit method. The protocol:
(§1) Evaluation of Antitumor Activity In Vitro
(§2) Cell Strains: A431; MCF-7
(§3) Experiment Design: Cells were incubated with different concentrations of compounds for 72 hours. The inhibition of cell proliferation by the compounds was evaluated by SRB, followed by calculation of the inhibition rate. Then, value of IC50 was calculated by using-Logit method base on the inhibition rate and used to compare in vitro antitumor activity of the compounds.
(§4) Method for Calculating the Inhibition Rate: Inhibition rate (%)=(OD value of control group−OD value of drug group)/OD value of control group×100%

A further assay concerns MCF-7. Described as above. Type of assay: cell-based. To be noted: 72 h incubation, Logit method. As to the method:
as §1, §2, §3, §4

[2] abbreviates: Homo sapiens, A-431, A431 cells.
Where [3] appears, read: Homo sapiens, MCF7, MCF-7 cells.
The mark [4] stands for this setting: xenografts in nude mice, PO QD × 17, 146.7 mg/kg.

Take `CN(C)[C@H](CS(C)(=O)=O)c1ccc(-c2ccc3ncnc(Nc4ccc(OCc5cccc(F)c5)c(Cl)c4)c3c2)o1` [Compound 97, (S)—N-(4-(3-fluorobenzyloxy)-3-chlorophenyl)-6-(5-(1-(N,N-dimethyl-amino)-2-(methylsulfonyl)ethyl)furan-2-yl)quinazolin-4-amine]: in assay [1], the “Initial Tumor Volume (mm^3) D0” value is 291.2 mm^3, the “Final Tumor Inhibition Rate (%) D16” value was 44%, the “% T/C D16” value is 56% and the “Relative Tumor Volume D16” value worked out at 1.9. Besides, in assay [1], the “Final Tumor Volume (mm^3) D16” value was 525.4 mm^3 and the “The Recession/Group” value stood at 0. Further, the “inhibition of growth of human lung cancer Calu-3 (in words)” value (“inhibition of growth … (in words)” for short) in assay [1] (xenografts in nude mice) was “inhibited the growth of human lung cancer Calu-3 significantly”. In addition, in the assay on A431 (setting [2]), the negative logarithm of the IC50 (pIC50) is 6.13. Moreover, the pIC50 with MCF-7 (setting [3]) is 5.18.
Consider `CN(C)[C@@H](CS(C)(=O)=O)c1ccc(-c2ccc3ncnc(Nc4ccc(OCc5cccc(F)c5)c(Cl)c4)c3c2)o1` [Compound 110, (R)—N-(4-(3-fluorobenzyl-oxy)-3-chlorophenyl)-6-(5-(1-(N,N-dimethyl-amino)-2-(methylsulfonyl)ethyl)-2-yl)quinazolin-4-amine], for which, in assay [1], the “Initial Tumor Volume (mm^3) D0” value stood at 249.1 mm^3, the “Final Tumor Inhibition Rate (%) D16” value turned out to be 77%, the “% T/C D16” value amounted to 23% and the “Relative Tumor Volume D16” value is reported as 0.8. Moreover, in assay [1], the “Final Tumor Volume (mm^3) D16” value was found to be 187.4 mm^3 and the “The Recession/Group” value is listed as 1. Further, the “inhibition of growth … (in words)” value in assay [1] (xenografts in nude mice) was “inhibited the growth of human lung cancer Calu-3 significantly”. Further, in assay [1] (setting [4]), the “fraction of the tumors in mice caused to shrink” value is recorded as “⅚” and the “number of mice with tumor shrinking more than 50% in volume” value is “one”. In the assay with A431 (A431 cells), the pIC50 was 6.11. The compound further showed a negative logarithm of the IC50 (pIC50) with MCF-7 (MCF-7 cells) of 5.25.
As to `C#CCN[C@H](CS(C)(=O)=O)c1cnc(-c2ccc3ncnc(Nc4ccc(OCc5cccc(F)c5)c(Cl)c4)c3c2)s1` [Compound 141], the pIC50 in the assay on A431 (A431 cells) was 6.31; with MCF-7 (MCF-7 cells) it was 5.12.
For `CON[C@H](CS(C)(=O)=O)c1cnc(-c2ccc3ncnc(Nc4ccc(OCc5cccc(F)c5)c(Cl)c4)c3c2)s1` [Compound 142], the results for the negative-log IC50 (pIC50) with A431 (A431 cells) and with MCF-7 (MCF-7 cells) were 6.30 and 5.10, respectively.
As for `CON(C)[C@H](CS(C)(=O)=O)c1cnc(-c2ccc3ncnc(Nc4ccc(OCc5cccc(F)c5)c(Cl)c4)c3c2)s1` [Compound 143], the pIC50 with A431 (A431 cells) is 6.10; in the assay with MCF-7 (MCF-7 cells), 5.29.
As for `CS(=O)(=O)C[C@@H](N)c1ccc(-c2ccc3ncnc(Nc4ccc5c(cnn5Cc5cccc(F)c5)c4)c3c2)o1` [Compound 144, (S)—N-(1-(3-fluorobenzyl)-1H-indazol-5-yl)-6-(5-(1-(amino)-2-(methylsulfonyl)ethyl)furan-2-yl)quinazolin-4-amine], the pIC50 with A431 (setting [2]) was 6.15; with MCF-7 (setting [3]) it was 5.30.
In the same order, the values of `CN[C@H](CS(C)(=O)=O)c1ccc(-c2ccc3ncnc(Nc4ccc5c(cnn5Cc5cccc(F)c5)c4)c3c2)o1` [Compound 145, (S)—N-(1-(3-fluorobenzyl)-1H-indazol-5-yl)-6-(5-(1-(methylamino)-2-(methylsulfonyl)ethyl)furan-2-yl)quinazolin-4-amine] are 6.24 and 5.08.
In the same order, the values of `CCN[C@H](CS(C)(=O)=O)c1ccc(-c2ccc3ncnc(Nc4ccc5c(cnn5Cc5cccc(F)c5)c4)c3c2)o1` [Compound 146, (S)—N-(1-(3-fluorobenzyl)-1H-indazol-5-yl)-6-(5-(1-(ethylamino)-2-(methylsulfonyl)ethyl)furan-2-yl)quinazolin-4-amine] are 6.31 and 5.26.
In the same order, the values of `CCCN[C@H](CS(C)(=O)=O)c1ccc(-c2ccc3ncnc(Nc4ccc5c(cnn5Cc5cccc(F)c5)c4)c3c2)o1` [Compound 147, (S)—N-(1-(3-fluorobenzyl)-1H-indazol-5-yl)-6-(5-(1-(propylamino)-2-(methylsulfonyl)ethyl)furan-2-yl)quinazolin-4-amine] are 6.39 and 5.10.
Take `CN(C1CC1)[C@H](CS(C)(=O)=O)c1ccc(-c2ccc3ncnc(Nc4ccc5c(cnn5Cc5cccc(F)c5)c4)c3c2)o1` [Compound 148, (S)—N-(1-(3-fluorobenzyl)-1H-indazol-5-yl)-6-(5-(1-(cyclopropyl-methyl-amino)-2-(methylsulfonyl)ethyl)furan-2-yl)quinazolin-4-amine]: the figures for the pIC50 in the assay on A431 (setting [2]) and with MCF-7 (setting [3]) were 6.35 and 5.15, respectively.
Turning to `CN(C)[C@H](CS(C)(=O)=O)c1ccc(-c2ccc3ncnc(Nc4ccc5c(cnn5Cc5cccc(F)c5)c4)c3c2)o1` [Compound 149, (S)—N-(1-(3-fluorobenzyl)-1H-indazol-5-yl)-6-(5-(1-(N,N-dimethylamino)-2-(methylsulfonyl)ethyl)furan-2-yl)quinazolin-4-amine], the pIC50 with A431 (setting [2]) was 6.46; in the assay on MCF-7 (setting [3]), 5.14.
For `CCN(CC)[C@H](CS(C)(=O)=O)c1ccc(-c2ccc3ncnc(Nc4ccc5c(cnn5Cc5cccc(F)c5)c4)c3c2)o1` [Compound 150], the negative logarithm of the IC50 (pIC50) with A431 (A431 cells) is 6.20; with MCF-7 (MCF-7 cells), 5.18.
For `CCCN(CCC)[C@H](CS(C)(=O)=O)c1ccc(-c2ccc3ncnc(Nc4ccc5c(cnn5Cc5cccc(F)c5)c4)c3c2)o1` [Compound 151], in that order: 6.20 and 5.22.
In the same order, the values of `CCN(C)[C@H](CS(C)(=O)=O)c1ccc(-c2ccc3ncnc(Nc4ccc5c(cnn5Cc5cccc(F)c5)c4)c3c2)o1` [Compound 152] are 6.22 and 5.18.
On to `C=CCN[C@H](CS(C)(=O)=O)c1ccc(-c2ccc3ncnc(Nc4ccc5c(cnn5Cc5cccc(F)c5)c4)c3c2)o1` [Compound 153, (S)—N-(1-(3-fluorobenzyl)-1H-indazol-5-yl)-6-(5-(1-(allyl-amino)-2-(methylsulfonyl)ethyl)furan-2-yl)quinazolin-4-amine], for which the pIC50 in the assay on A431 (setting [2]) is 6.07; with MCF-7 (setting [3]), 5.23.
In the case of `C#CCN[C@H](CS(C)(=O)=O)c1ccc(-c2ccc3ncnc(Nc4ccc5c(cnn5Cc5cccc(F)c5)c4)c3c2)o1` [Compound 154, (S)—N-(1-(3-fluorobenzyl)-1H-indazol-5-yl)-6-(5-(1-(propargyl-amino)-2-(methylsulfonyl)ethyl)furan-2-yl)quinazolin-4-amine], the pIC50 with A431 (setting [2]) was 6.20; in the assay on MCF-7 (setting [3]) it was 5.31.
Turning to `CON[C@H](CS(C)(=O)=O)c1ccc(-c2ccc3ncnc(Nc4ccc5c(cnn5Cc5cccc(F)c5)c4)c3c2)o1` [Compound 155], the figures for the negative-log IC50 (pIC50) in the assay with A431 (A431 cells) and with MCF-7 (MCF-7 cells) were 6.32 and 5.07, respectively.
With `CON(C)[C@H](CS(C)(=O)=O)c1ccc(-c2ccc3ncnc(Nc4ccc5c(cnn5Cc5cccc(F)c5)c4)c3c2)o1` [Compound 156], the negative logarithm of the IC50 (pIC50) in the assay with A431 (A431 cells) is 6.37; with MCF-7 (MCF-7 cells), 5.26.
For `CS(=O)(=O)CCNCc1ccc(-c2ccc3ncnc(Nc4ccc(OCc5cccc(F)c5)c(Cl)c4)c3c2)o1` [Lapatinib, reference compound], in assay [1], the “Initial Tumor Volume (mm^3) D0” value came out at 262.3 mm^3, the “Final Tumor Inhibition Rate (%) D16” value was determined as 42%, the “% T/C D16” value is 58% and the “Relative Tumor Volume D16” value was 2.0. Besides, in assay [1], the “Final Tumor Volume (mm^3) D16” value was found to be 526.5 mm^3 and the “The Recession/Group” value is 0. The “inhibition of growth … (in words)” value in assay [1] (xenografts in nude mice) was “inhibited the growth of human lung cancer Calu-3 significantly”. The compound further had a negative logarithm of the IC50 (pIC50) with A431 (setting [2]) of 6.19. Moreover, in the assay on MCF-7 (setting [3]), the negative logarithm of the IC50 (pIC50) was 5.07.

The record behind these values is US20110281896A1, “OPTICALLY PURE QUINAZOLINE COMPOUNDS” (Jiangsu Hansoh Pharmaceutical Co. Ltd, priority 2009, published 2011).
